Reference: PMC9234961 (Journal of Medicinal Chemistry, 2022)
Read-outs that look alike come from different tables or passages of the source.

Experiments:
kinases (468) [1] = target: kinases (468) (Homo sapiens, UniProt P42336, H1047L); conditions: PIK3CA(H1047L); 1000 nM
kinases (468) [2] = target: kinases (468) (Homo sapiens, UniProt Q86Z02); conditions: HIPK1; 1000 nM
kinases (468) [3] = target: kinases (468) (Homo sapiens, UniProt Q9UK32); conditions: compound concentration 1000 nM
kinases (468) [4] = target: kinases (468) (Homo sapiens, UniProt P50613); conditions: CDK7; 1000 nM
kinases (468) [5] = target: kinases (468) (Homo sapiens, UniProt O14578); conditions: CIT; 1000 nM
kinases (468) [6] = target: kinases (468) (Mycobacterium tuberculosis, UniProt P9WI81); conditions: PKNB(M.tuberculosis) (pknB); 1000 nM
kinases (468) [7] = target: kinases (468) (Homo sapiens, UniProt Q13627); conditions: DYRK1A; 1000 nM
kinases (468) [8] = target: kinases (468) (Homo sapiens, UniProt Q9H4A3); conditions: kinase WNK1 (Entrez WNK1); compound concentration 1000 nM
kinases (468) [9] = target: kinases (468) (Homo sapiens, UniProt P53671); conditions: LIMK2; 1000 nM
kinases (468) [10] = target: kinases (468) (Homo sapiens, UniProt P11802); conditions: 1000 nM
kinases (468) [11] = target: kinases (468) (Homo sapiens, UniProt P78368); conditions: CSNK1G2; 1000 nM
kinases (468) [12] = target: kinases (468) (Homo sapiens, UniProt P43405); conditions: kinase SYK (Entrez SYK); compound concentration 1000 nM
kinases (468) [13] = target: kinases (468) (Homo sapiens, UniProt Q9HAZ1); conditions: CLK4; 1000 nM
kinases (468) [14] = target: kinases (468) (Homo sapiens, UniProt Q9BQI3); conditions: EIF2AK1; 1000 nM
kinases (468) [15] = target: kinases (468) (Homo sapiens, UniProt Q8TDC3); conditions: BRSK1; 1000 nM
kinases (468) [16] = target: kinases (468) (Homo sapiens, UniProt Q9UEW8); conditions: kinase STK39 (Entrez STK39); compound concentration 1000 nM
kinases (468) [17] = target: kinases (468) (Homo sapiens, UniProt O75676); conditions: compound concentration 1000 nM
kinases (468) [18] = target: kinases (468) (Homo sapiens, UniProt Q8NEB9); conditions: kinase VPS34 (Entrez PIK3C3); compound concentration 1000 nM
kinases (468) [19] = target: kinases (468) (Homo sapiens, UniProt Q06418); conditions: kinase TYRO3 (Entrez TYRO3); compound concentration 1000 nM
kinases (468) [20] = target: kinases (468) (Homo sapiens, UniProt P06213); conditions: INSR; 1000 nM
kinases (468) [21] = target: kinases (468) (Homo sapiens, UniProt P33981); conditions: kinase TTK (Entrez TTK); compound concentration 1000 nM
kinases (468) [22] = target: kinases (468) (Homo sapiens, UniProt O76039); conditions: CDKL5; 1000 nM
kinases (468) [23] = target: kinases (468) (Homo sapiens, UniProt Q9BWU1); conditions: CDK11 (CDK19); 1000 nM
kinases (468) [24] = target: kinases (468) (Homo sapiens, UniProt O14733); conditions: MKK7 (MAP2K7); 1000 nM
kinases (468) [25] = target: kinases (468) (Homo sapiens, UniProt P37023); conditions: ACVRL1; 1000 nM
kinases (468) [26] = target: kinases (468) (Homo sapiens, UniProt P27037); conditions: ACVR2A; 1000 nM
kinases (468) [27] = target: kinases (468) (Homo sapiens, UniProt Q96L34); conditions: MARK4; 1000 nM
kinases (468) [28] = target: kinases (468) (Homo sapiens, UniProt P21860); conditions: ERBB3; 1000 nM
kinases (468) [29] = target: kinases (468) (Homo sapiens, UniProt Q32MK0); conditions: MLCK (MYLK3); 1000 nM
kinases (468) [30] = target: kinases (468) (Homo sapiens, UniProt P29323); conditions: EPHB2; 1000 nM
kinases (468) [31] = target: kinases (468) (Homo sapiens, UniProt Q14680); conditions: MELK; 1000 nM
kinases (468) [32] = target: kinases (468) (Homo sapiens, UniProt Q9BXA7); conditions: kinase TSSK1B (Entrez TSSK1B); compound concentration 1000 nM
kinases (468) [33] = target: kinases (468) (Homo sapiens, UniProt O95747); conditions: OSR1 (OXSR1); 1000 nM

Sequence of kinases (468) (Homo sapiens, UniProt P11802) (P11802 whole entry): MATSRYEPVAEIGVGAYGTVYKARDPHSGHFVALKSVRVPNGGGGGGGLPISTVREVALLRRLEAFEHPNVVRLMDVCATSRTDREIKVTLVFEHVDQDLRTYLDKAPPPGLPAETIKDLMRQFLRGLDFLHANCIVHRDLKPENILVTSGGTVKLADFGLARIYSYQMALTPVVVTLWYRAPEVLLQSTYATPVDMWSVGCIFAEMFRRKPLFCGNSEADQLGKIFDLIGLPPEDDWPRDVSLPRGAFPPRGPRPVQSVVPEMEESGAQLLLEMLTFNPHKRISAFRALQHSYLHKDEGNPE
Sequence of kinases (468) (Homo sapiens, UniProt Q9UK32) (Q9UK32 whole entry): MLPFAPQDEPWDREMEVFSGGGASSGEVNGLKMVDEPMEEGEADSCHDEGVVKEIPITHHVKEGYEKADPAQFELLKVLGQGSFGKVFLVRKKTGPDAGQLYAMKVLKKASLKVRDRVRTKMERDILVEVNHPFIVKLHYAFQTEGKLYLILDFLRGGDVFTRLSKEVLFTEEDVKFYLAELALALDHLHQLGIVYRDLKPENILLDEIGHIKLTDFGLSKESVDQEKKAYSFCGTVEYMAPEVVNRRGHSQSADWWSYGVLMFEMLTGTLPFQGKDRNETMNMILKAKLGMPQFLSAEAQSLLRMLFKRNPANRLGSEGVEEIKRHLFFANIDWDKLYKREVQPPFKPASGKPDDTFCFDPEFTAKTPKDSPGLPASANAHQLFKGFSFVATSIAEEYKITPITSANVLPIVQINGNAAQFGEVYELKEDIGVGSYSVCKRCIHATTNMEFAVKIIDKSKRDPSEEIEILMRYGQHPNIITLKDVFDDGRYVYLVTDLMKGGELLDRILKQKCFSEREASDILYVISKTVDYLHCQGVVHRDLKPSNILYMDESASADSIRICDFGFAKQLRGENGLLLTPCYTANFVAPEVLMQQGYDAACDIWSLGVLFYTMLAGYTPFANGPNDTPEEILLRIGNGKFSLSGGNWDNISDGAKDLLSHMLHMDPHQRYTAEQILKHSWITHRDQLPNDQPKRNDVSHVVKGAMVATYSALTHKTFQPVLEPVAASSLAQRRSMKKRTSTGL
Sequence of kinases (468) (Homo sapiens, UniProt O75676) (O75676 whole entry): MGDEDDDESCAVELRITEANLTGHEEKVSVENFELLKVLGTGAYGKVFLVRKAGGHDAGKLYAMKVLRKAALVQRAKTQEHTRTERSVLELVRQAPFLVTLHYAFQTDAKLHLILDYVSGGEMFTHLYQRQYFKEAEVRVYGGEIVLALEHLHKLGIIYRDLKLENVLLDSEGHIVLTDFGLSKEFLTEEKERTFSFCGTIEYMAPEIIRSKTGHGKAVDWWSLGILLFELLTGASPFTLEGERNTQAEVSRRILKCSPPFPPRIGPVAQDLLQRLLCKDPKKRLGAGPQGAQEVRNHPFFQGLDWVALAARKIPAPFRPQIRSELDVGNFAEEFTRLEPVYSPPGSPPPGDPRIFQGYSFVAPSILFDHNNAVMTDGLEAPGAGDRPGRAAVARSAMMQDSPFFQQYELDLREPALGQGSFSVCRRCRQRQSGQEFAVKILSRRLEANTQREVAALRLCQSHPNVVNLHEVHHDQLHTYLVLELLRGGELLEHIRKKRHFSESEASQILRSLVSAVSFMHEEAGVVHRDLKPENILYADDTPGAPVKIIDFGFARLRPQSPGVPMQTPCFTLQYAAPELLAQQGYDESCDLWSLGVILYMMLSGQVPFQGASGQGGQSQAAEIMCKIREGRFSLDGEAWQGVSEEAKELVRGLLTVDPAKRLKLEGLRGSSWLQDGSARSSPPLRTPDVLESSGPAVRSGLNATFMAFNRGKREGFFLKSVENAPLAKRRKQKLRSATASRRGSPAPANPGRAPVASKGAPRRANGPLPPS
Sequence of kinases (468) (Mycobacterium tuberculosis, UniProt P9WI81) (P9WI81 whole entry, looked up): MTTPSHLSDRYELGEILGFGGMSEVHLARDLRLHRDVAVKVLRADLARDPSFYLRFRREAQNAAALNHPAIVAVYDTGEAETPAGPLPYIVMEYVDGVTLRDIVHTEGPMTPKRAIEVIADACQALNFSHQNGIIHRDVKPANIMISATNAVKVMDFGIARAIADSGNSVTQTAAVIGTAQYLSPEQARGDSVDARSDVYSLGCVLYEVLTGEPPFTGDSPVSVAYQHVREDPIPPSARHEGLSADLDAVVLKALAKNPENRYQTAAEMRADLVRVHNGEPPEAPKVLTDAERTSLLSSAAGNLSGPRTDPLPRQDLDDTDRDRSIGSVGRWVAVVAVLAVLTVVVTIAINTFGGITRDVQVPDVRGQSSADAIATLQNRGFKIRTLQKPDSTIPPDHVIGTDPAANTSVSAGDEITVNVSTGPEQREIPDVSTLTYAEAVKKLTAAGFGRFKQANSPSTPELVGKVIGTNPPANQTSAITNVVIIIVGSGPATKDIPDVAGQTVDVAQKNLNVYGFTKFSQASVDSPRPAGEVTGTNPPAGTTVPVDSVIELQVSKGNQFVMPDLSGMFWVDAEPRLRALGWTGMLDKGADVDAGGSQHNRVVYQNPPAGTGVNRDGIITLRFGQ
Sequence of kinases (468) (Homo sapiens, UniProt Q8TDC3) (Q8TDC3 whole entry): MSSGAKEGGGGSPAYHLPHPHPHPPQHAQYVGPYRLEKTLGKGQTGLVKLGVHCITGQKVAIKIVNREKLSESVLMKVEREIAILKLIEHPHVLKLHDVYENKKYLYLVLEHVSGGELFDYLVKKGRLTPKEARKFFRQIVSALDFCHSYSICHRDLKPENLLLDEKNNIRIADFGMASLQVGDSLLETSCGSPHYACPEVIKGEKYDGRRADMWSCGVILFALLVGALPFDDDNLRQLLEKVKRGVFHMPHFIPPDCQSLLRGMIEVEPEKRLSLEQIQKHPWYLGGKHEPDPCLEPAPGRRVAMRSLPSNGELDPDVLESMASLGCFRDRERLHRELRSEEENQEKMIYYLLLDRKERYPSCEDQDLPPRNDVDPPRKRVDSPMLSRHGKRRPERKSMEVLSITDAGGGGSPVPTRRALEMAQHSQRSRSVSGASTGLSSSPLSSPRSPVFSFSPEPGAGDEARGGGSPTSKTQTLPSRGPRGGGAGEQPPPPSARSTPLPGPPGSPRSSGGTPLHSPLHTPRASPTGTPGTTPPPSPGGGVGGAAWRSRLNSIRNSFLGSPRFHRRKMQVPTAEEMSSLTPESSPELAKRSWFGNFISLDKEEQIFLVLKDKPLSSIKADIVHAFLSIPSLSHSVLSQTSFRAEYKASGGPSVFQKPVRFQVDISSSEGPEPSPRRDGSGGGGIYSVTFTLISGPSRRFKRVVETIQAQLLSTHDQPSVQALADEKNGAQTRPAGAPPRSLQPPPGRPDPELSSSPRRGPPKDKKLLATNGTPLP
Sequence of kinases (468) (Homo sapiens, UniProt Q8NEB9) (Q8NEB9 whole entry): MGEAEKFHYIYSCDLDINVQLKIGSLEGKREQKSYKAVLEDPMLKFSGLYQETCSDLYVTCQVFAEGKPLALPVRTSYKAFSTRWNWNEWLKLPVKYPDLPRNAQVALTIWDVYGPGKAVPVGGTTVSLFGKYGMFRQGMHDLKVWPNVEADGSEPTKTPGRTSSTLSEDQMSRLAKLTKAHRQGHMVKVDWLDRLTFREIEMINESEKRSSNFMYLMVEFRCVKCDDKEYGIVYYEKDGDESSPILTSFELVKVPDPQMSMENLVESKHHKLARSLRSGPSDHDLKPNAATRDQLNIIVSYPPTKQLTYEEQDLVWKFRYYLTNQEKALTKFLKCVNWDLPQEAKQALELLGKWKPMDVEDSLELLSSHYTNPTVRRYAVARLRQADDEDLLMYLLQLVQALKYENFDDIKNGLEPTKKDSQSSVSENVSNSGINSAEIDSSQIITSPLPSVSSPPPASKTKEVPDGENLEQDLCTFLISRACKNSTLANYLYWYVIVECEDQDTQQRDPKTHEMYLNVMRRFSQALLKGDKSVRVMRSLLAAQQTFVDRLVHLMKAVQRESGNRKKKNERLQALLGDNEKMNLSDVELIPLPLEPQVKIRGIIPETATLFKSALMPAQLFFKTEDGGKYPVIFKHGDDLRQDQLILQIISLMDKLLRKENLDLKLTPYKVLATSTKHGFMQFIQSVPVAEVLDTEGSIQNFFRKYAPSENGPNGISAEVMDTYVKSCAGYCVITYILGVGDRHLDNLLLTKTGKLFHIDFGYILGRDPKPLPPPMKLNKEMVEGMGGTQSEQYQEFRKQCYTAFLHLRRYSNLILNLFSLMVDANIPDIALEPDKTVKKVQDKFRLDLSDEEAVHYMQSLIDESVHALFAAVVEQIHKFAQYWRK
Sequence of kinases (468) (Homo sapiens, UniProt P53671) (P53671 whole entry): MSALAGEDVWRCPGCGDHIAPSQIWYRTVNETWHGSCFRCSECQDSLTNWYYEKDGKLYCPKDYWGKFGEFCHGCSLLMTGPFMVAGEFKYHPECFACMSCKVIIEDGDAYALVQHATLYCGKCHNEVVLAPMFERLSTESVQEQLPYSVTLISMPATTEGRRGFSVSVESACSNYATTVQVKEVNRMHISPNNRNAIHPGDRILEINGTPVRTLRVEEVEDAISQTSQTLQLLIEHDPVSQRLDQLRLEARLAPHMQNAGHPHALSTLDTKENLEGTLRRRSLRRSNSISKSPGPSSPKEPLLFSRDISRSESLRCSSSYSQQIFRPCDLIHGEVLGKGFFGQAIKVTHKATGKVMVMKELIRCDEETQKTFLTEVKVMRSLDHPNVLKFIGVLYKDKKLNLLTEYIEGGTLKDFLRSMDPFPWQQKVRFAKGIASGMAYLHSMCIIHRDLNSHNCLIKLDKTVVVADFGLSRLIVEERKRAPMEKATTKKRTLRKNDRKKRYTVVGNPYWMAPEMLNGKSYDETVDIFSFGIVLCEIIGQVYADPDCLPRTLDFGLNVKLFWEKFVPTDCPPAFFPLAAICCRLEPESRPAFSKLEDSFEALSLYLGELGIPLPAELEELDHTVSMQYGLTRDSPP

**Q.** Which results are given for `C[C@H]1C[C@@H](O)CN(c2ncc(Cl)c(Nc3ccc4c(c3)c3c(c(=O)n4C)OCC(F)(F)[C@H](C4CC4)N3)n2)C1` [CCT373566_9A]?
**A.** Percent Control (kinases (468) [1]): 84%; Percent Control (kinases (468) [2]): 98%; Percent Control (kinases (468) [3]; kinase RSK4(Kin.Dom.1-N-terminal) (Entrez RPS6KA6)): 90%; Percent Control (kinases (468) [3]; kinase RSK4(Kin.Dom.2-C-terminal) (Entrez RPS6KA6)): 88%; Percent Control (kinases (468) [4]): 93%; Percent Control (kinases (468) [5]): 99%; Percent Control (kinases (468) [6]): 100%; Percent Control (kinases (468) [7]): 95%; Percent Control (kinases (468) [8]): 100%; Percent Control (kinases (468) [9]): 100%; Percent Control (kinases (468) [10]; CDK4-cyclinD1): 94%; Percent Control (kinases (468) [10]; CDK4-cyclinD3): 95%; Percent Control (kinases (468) [10]; CDK4): 100%; Percent Control (kinases (468) [11]): 99%; Percent Control (kinases (468) [12]): 98%; Percent Control (kinases (468) [13]): 91%; Percent Control (kinases (468) [14]): 72%; Percent Control (kinases (468) [15]): 96%; Percent Control (kinases (468) [16]): 98%; Percent Control (kinases (468) [17]; kinase RPS6KA4(Kin.Dom.1-N-terminal) (Entrez RPS6KA4)): 96%; Percent Control (kinases (468) [17]; kinase RPS6KA4(Kin.Dom.2-C-terminal) (Entrez RPS6KA4)): 100%; Percent Control (kinases (468) [18]): 80%; Percent Control (kinases (468) [19]): 100%; Percent Control (kinases (468) [20]): 98%; Percent Control (kinases (468) [21]): 91%; Percent Control (kinases (468) [22]): 96%; Percent Control (kinases (468) [23]): 99%; Percent Control (kinases (468) [24]): 91%; Percent Control (kinases (468) [25]): 96%; Percent Control (kinases (468) [26]): 82%; Percent Control (kinases (468) [27]): 100%; Percent Control (kinases (468) [28]): 85%; Percent Control (kinases (468) [29]): 100%; Percent Control (kinases (468) [30]): 96%; Percent Control (kinases (468) [31]): 100%; Percent Control (kinases (468) [32]): 100%; Percent Control (kinases (468) [33]): 100%
